# Data taken from patent publication EP4667464A1 (Cyrus Therapeutics Inc., priority 2023, dated 2024).
# Molecular target: T1, SOS1 (Homo sapiens, UniProt Q07889)
# T1 construct: HIS-SOS1cat (160 nM; Cytoskeleton, US); His (N); purchased Cytoskeleton
# T1 sequence (Q07889 564-1049 limits assumed): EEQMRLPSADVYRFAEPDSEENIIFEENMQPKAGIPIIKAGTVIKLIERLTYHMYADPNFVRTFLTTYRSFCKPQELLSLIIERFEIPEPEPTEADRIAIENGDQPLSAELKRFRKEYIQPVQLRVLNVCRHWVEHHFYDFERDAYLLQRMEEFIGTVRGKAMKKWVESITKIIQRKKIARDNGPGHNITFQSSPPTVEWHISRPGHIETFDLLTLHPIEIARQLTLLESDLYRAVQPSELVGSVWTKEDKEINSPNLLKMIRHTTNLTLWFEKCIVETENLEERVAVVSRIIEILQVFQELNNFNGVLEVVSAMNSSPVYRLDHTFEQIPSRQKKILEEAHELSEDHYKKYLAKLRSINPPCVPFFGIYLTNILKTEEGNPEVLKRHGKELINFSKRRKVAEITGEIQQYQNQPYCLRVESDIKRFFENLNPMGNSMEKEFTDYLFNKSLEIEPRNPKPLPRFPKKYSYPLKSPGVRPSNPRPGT
# Assay: SOS-catalyzed nucleotide exchange assay (HTRF, SOS1-mediated GTP loading of KRAS G12D)
# Format: biochemical
# Conditions: GST-KRAS G12D, HIS-SOS1cat, compound 128 pM to 10 µM; read-out: SOS-catalyzed nucleotide exchange assay
# Procedure: SOS1 activity was measured by SOS1-mediated GTP loading quantification of KRAS^G12D. GTP loaded KRAS^G12D was detected by HTRF (Homogeneous Time Resolved Fluorescence) using anti-GST terbium (Cisbio, France) as a donor and a fluorescence GTP analogue (EDA-GTP-DY-647P1, [DY-647P1 labeled 2'/3'-O-(2-aminoethyl-carbamoyl)guanosine-5'-triphosphate (Jena bioscience, Germany)]) as an acceptor.
# KRAS^G12D working solution was prepared by adding equal amounts of GST-KRAS^G12D (100 nM) and anti-GST-terbium (2 nM; Cisbio, France) to the assay buffer and culturing on ice for 10 minutes. […] Control solution was prepared by adding equal volumes of EDA-GTP-DY-647P1 and the assay buffer for normalization control to exclude GEF-independent GTP loading and background signals.
# 10 uL of the KRAS^G12D solution was added to each well and incubated for 30 minutes at room temperature while shaking. HTRF was measured using a Thermo Varioskan (excitation 334 nm, emission 665 nm). The IC50 of each inhibitor was analyzed using Graphad Prism.
row,SMILES,IC50 [µM]
1,"C[C@H](O)c1cc(C(=O)N[C@H](C)c2cccc(C(F)(F)F)c2F)nn(-c2cncc(-c3cnnn3C)c2)c1=O (single isomer, unassigned) [Example 10]",0.05 to 0.15
2,"C[C@@H](NC(=O)c1ccc(=O)n(-c2cncc(-c3cnnn3C3COC3)c2)n1)c1cccc(C(F)(F)CO)c1F [Example 1-70, (R)-N-(1-(3-(1,1-difluoro-2-hydroxyethyl)-2-fluorophenyl)ethyl)-1-(5-(1-(oxetan-3-yl)-1H-1,2,3-triazol-5-yl)pyridin-3-yl)-6-oxo-1,6-dihydropyridazine-3-carboxamide]",< 0.05
3,"C[C@@H](NC(=O)c1cc(C(F)(F)F)c(=O)n(-c2cncc(-c3cnnn3C)c2)n1)c1cccc(C(F)(F)CO)c1F [Example 1-72, (R)-N-(1-(3-(1,1-difluoro-2-hydroxyethyl)-2-fluorophenyl)ethyl)-1-(5-(1-methyl-1H-1,2,3-triazol-5-yl)pyridin-3-yl)-6-oxo-5-(trifluoromethyl)-1,6-dihydropyridazine-3-carboxamide]",< 0.05

# The remaining lines, values ahead:
row,IC50 [µM],SMILES
1,< 0.05,"C[C@@H](O)c1cc(C(=O)N[C@H](C)c2cccc(C(F)(F)F)c2F)nn(-c2cncc(-c3cnnn3C)c2)c1=O (single isomer, unassigned) [Example 9]"
2,< 0.05,"[2H]C([2H])(O)C(F)(F)c1cccc([C@@H](C)NC(=O)c2ccc(=O)n(-c3cncc(-c4cnnn4C4COC4)c3)n2)c1F [Example 1-71, (R)-N-(1-(3-(1,1-difluoro-2-hydroxyethyl-2,2-dideuterio)-2-fluorophenyl)ethyl)-1-(5-(1-(oxetan-3-yl)-1H-1,2,3-triazol-5-yl)pyridin-3-yl)-6-oxo-1,6-dihydropyridazine-3-carboxamide]"

# Molecular target: T2, KRAS G12C::SOS1 (Homo sapiens, UniProt Q07889)
# T2 construct: purchased CISBIO 64KRASG12PEH
# T2 sequence (Q07889 1-1333): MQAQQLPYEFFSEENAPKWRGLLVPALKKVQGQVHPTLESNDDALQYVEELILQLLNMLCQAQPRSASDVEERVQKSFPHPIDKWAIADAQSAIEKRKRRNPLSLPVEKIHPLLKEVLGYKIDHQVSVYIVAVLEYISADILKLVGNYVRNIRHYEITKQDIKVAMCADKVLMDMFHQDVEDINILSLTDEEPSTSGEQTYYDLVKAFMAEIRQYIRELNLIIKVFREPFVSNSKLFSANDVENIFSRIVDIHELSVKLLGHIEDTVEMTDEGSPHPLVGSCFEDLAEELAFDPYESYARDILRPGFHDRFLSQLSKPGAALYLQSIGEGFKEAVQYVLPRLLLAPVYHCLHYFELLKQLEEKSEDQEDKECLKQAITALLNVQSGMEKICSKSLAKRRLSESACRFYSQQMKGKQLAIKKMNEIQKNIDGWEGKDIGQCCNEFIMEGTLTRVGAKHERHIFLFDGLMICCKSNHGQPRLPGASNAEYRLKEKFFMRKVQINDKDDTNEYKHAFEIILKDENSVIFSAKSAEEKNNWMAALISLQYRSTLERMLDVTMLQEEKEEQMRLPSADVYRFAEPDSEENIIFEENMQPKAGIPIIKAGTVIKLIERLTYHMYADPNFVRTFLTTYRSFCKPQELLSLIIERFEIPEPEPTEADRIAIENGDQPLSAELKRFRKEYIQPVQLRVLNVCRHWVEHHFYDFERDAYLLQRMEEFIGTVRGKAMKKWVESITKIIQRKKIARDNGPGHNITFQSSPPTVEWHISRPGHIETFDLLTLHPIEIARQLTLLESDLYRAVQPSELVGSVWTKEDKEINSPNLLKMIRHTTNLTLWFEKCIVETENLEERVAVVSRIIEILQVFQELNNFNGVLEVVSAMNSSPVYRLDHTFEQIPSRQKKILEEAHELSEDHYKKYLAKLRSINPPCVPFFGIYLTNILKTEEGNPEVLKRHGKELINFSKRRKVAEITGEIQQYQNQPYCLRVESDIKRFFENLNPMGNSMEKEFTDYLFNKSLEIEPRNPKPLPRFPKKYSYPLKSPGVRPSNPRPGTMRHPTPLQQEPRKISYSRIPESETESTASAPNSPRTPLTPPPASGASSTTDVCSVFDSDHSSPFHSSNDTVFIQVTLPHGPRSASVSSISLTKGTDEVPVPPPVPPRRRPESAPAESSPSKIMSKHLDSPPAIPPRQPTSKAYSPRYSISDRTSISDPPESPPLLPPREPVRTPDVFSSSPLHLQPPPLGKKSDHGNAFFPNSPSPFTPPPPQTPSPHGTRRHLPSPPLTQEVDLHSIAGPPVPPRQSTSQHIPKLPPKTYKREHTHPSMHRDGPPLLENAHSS
# Assay: KRAS G12C::SOS1 protein-protein interaction (PPI) inhibition assay (HTRF)
# Format: binding
# Conditions: not given
# Procedure: Protein-protein interaction between SOS1 and KRAS^G12c was detected using KRAS G12C/SOS1 binding kit from CISBIO (64KRASG12PEH, CISBIO, FRANCE) according to the manufacturer's assay method. Briefly, the maximum concentration of an inhibitor sample was set to be 3 µM, and the inhibitor sample was diluted 7 times by 1/3, and samples having a total of 8 concentrations were prepared. In HTRF (Homogeneous Time-Resolved Fluorescence) exclusive 96-well low-volume white plate (66PL96005, CISBIO, FRANCE), 2 µL of an inhibitor sample prepared for each concentration, 5 µL of a mixed solution of Tag1 labeled KRAS^G12c protein and GTP diluted with the dilution solution provided by the manufacturer, and 5 µL of Tag2 labeled SOS1 protein were mixed, and added with 8 µL of a diluted solution where anti-Tag1 KRAS^G12C XL665 (HTRF acceptor) labeled antibody and anti-Tag2 SOS1 Terbium cryptate (HTRF donor) labeled antibody were mixed in an equal ratio and cultured at room temperature for 2 h.
row,SMILES,IC50 [µM]
1,"COCC1(c2cccc([C@@H](C)NC(=O)c3ccc(=O)n(-c4cncc(-c5cnnn5C)c4)n3)c2F)CC1 [Example 18, N-[(1R)-1-[2-fluoro-3-[1-(methoxymethyl)cyclopropyl]phenyl]ethyl]-1-[5-(3-methyltriazol-4-yl)-3-pyridyl]-6-oxo-pyridazine-3-carboxamide]",> 0.15

# Same assay, conditions: 8 concentrations from 3 µM, three replicates; read-out: KRAS G12C::SOS1 PPI
row,SMILES,IC50 [µM]
1,"C[C@H](O)c1cc(C(=O)N[C@H](C)c2cccc(C(F)(F)F)c2F)nn(-c2cncc(-c3cnnn3C)c2)c1=O (single isomer, unassigned) [Example 10]",0.05 to 0.15
2,"Cc1ncc(-n2nc(C(=O)N[C@H](C)c3cccc(C(F)(F)CO)c3C)ccc2=O)cc1-c1cnnn1C [Example 1-28, N-[(1R)-1-[3-(1,1-difluoro-2-hydroxy-ethyl)-2-methyl-phenyl]ethyl]-1-[6-methyl-5-(3-methyltriazol-4-yl)-3-pyridyl]-6-oxo-pyridazine-3-carboxamide]",> 0.15
3,"C[C@@H](NC(=O)c1cc(N[C@H](C)c2cccc(C(F)(F)F)c2F)c(=O)n(-c2cncc(-c3cnnn3C)c2)n1)c1cccc(C(F)(F)F)c1F [Example 1-44, N-{(R)-1-[2-fluoro-3-(trifluoromethyl)phenyl]ethyl}-5-{(R)-1-[2-fluoro-3-(trifluoromethyl)phenyl]ethylamino}-1-[5-(1-methyl-1H-1,2,3-triazol-5-yl)-3-pyridyl]-6-oxo-1,6-dihydropyridazine-3-carboxamide]",> 0.15

# Now from value to molecule:
row,IC50 [µM],SMILES
1,0.05 to 0.15,"C[C@@H](O)c1cc(C(=O)N[C@H](C)c2cccc(C(F)(F)F)c2F)nn(-c2cncc(-c3cnnn3C)c2)c1=O (single isomer, unassigned) [Example 9]"
2,> 0.15,"C[C@@H](NC(=O)c1ccc(=O)n(-c2cncc(-c3cnnn3C)c2)n1)c1cccc(C2(CF)CC2)c1F (single isomer, unassigned) [Example 16]"
3,> 0.15,"C[C@@H](NC(=O)c1ccc(=O)n(-c2cncc(-c3cnnn3C)c2)n1)c1cccc(C2=CCC2)c1F (single isomer, unassigned) [Example 17]"
4,0.05 to 0.15,"C[C@@H](NC(=O)c1ccc(=O)n(-c2cncc(-c3cnnn3C)c2)n1)c1cccc(C(F)(F)F)c1Cl [Example 1-31, N-[(1R)-1-[2-chloro-3-(trifluoromethyl)phenyl]ethyl]-1-[5-(3-methyltriazol-4-yl)-3-pyridyl]-6-oxo-pyridazine-3-carboxamide]"
5,0.05 to 0.15,"CNc1ncc(-n2nc(C(=O)N[C@H](C)c3cccc(C(F)(F)F)c3F)ccc2=O)cc1-c1cnnn1C [Example 1-45, N-{(R)-1-[2-fluoro-3-(trifluoromethyl)phenyl]ethyl}-1-[6-(methylamino)-5-(1-methyl-1H-1,2,3-triazol-5-yl)-3-pyridyl]-6-oxo-1,6-dihydropyridazine-3-carboxamide]"
6,> 0.15,"Cc1ncc(-n2nc(C(=O)N[C@H](C)c3cccc(C(F)F)c3F)ccc2=O)cc1-c1cnnn1C [Example 1-47, N-{(R)-1-[3-(difluoromethyl)-2-fluorophenyl]ethyl}-1-[6-methyl-5-(1-methyl-1H-1,2,3-triazol-5-yl)-3-pyridyl]-6-oxo-1,6-dihydropyridazine-3-carboxamide]"
7,0.05 to 0.15,"COc1ncc(-n2nc(C(=O)N[C@H](C)c3cccc(C(F)(F)F)c3F)ccc2=O)cc1-c1cnnn1C [Example 6-5, N-{(R)-1-[2-fluoro-3-(trifluoromethyl)phenyl]ethyl}-1-[6-methoxy-5-(1-methyl-1H-1,2,3-triazol-5-yl)-3-pyridyl]-6-oxo-1,6-dihydropyridazine-3-carboxamide]"
8,0.05 to 0.15,"C[C@@H](NC(=O)c1ccc(=O)n(-c2cnc(N(C)C)c(-c3cnnn3C)c2)n1)c1cccc(C(F)(F)F)c1F [Example 6-6, N-{(R)-1-[2-fluoro-3-(trifluoromethyl)phenyl]ethyl}-1-[6-(dimethylamino)-5-(1-methyl-1H-1,2,3-triazol-5-yl)-3-pyridyl]-6-oxo-1,6-dihydropyridazine-3-carboxamide]"

# Same assay, conditions: read-out: KRAS G12C::SOS1 PPI; 8 concentrations from 3 µM, three replicates
row,SMILES,IC50 [µM]
1,"C[C@@H](NC(=O)c1ccc(=O)n(-c2cncc(-c3cnnn3C)c2)n1)c1cccc(C2(CO)CC2)c1F [Example 1-32, N-[(1R)-1-[2-fluoro-3-[1-(hydroxymethyl)cyclopropyl]phenyl]ethyl]-1-[5-(3-methyltriazol-4-yl)-3-pyridyl]-6-oxo-pyridazine-3-carboxamide]",> 0.15
